US11066365B2, “1-cyano-pyrrolidine compounds as USP30 inhibitors” (Mission Therapeutics Limited, priority 2015, dated 2021)
pIC50: −log10 of the molar value.

Target: USP30 (Homo sapiens (Human), UniProt Q70CQ3)
Experiment: USP30 biochemical IC50 assay (fluorescence polarisation, FP)
Conditions: USP30 biochemical FP or FI IC50 assay (table does not say which format per compound); read-out: IC50 range
Procedure: In Vitro USP30 FP Inhibition Assay
USP30 Biochemical IC50 Assay
Dilution plates were prepared at 21 times the final concentration (2100 μM for a final concentration of 100 μM) in 50% DMSO in a 96-well polypropylene V-bottom plate (Greiner #651201). A typical 8-point dilution series would be 100, 30, 10, 3, 1, 0.3, 0.1, 0.03 μM final. Reactions were performed in duplicate in black 384 well plates (small volume, Greiner 784076) in a final reaction volume of 21 μl. Either 1 μl of 50% DMSO or diluted compound was added to the plate. USP30 was diluted in reaction buffer (40 mM Tris, pH 7.5, 0.005% Tween 20, 0.5 mg/ml BSA, 5 mM beta-mercaptoethanol) to the equivalent of 0.05 μl/well and 10 μl of diluted USP30 was added to the compound. Enzyme and compound were incubated for 30 min at room temp. Reactions were initiated by the addition of 50 nM of TAMRA labelled peptide linked to ubiquitin via an iso-peptide bond as fluorescence polarisation substrate. Reactions were read immediately after addition of substrate and following a 2 hr incubation at room temperature. Readings were performed on a Pherastar Plus (BMG Labtech).

Chain of USP30 (Q70CQ3 57-517): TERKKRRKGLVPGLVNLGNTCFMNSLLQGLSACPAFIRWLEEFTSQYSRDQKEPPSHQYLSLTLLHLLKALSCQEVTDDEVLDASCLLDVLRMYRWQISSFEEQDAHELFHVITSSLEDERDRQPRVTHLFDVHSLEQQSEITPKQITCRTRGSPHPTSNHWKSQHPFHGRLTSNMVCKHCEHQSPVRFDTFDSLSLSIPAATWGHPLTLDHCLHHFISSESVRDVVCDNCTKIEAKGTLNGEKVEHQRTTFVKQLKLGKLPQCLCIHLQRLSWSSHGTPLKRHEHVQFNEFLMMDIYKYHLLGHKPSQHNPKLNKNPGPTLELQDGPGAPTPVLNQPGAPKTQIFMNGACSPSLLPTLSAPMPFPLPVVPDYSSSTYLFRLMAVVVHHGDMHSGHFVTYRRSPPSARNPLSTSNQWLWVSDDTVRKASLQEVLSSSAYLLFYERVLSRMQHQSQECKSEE

pIC50: 6.00 to 7.00
Substance: rac-(3aR,6aR)-1-(3-phenyl-1H- pyrazole-5- carbonyl)hexahydropyrrolo[3,4- bipyrrole-5(1H)-carbonitrile [Example 52]
